# Measurements taken from patent US20250197343A1, “CATIONIC LIPID” (TAKEDA PHARMACEUTICAL COMPANY LIMITED, priority 2021, published 2025).
# Assays:
# [1] = Particle size of Luc DNA-encapsulated lipid nanoparticles; assay type: physicochemical; conditions: cationic lipid:DPPC:cholesterol:GM-020=60:10.6:28:1.4 molar ratio
# Description: The particle size of the lipid particle (in the composition) can be measured by a known approach. For example, the particle size can be calculated as a Z-average particle size by the cumulant analysis of an autocorrelation function using a particle size measurement apparatus Zetasizer Nano ZS (Malvern Instruments) based on a dynamic light scattering measurement technique. The particle size (average particle size) of the lipid particle (in the composition) is, for example, 10 to 200 nm, preferably 60 to 170 nm.
# (§1) A lipid mixture containing a cationic lipid of the Examples shown in Table 2 (cationic lipid:DPPC:cholesterol:GM-020=60:10.6:28:1.4, molar ratio) was dissolved in 90% of EtOH and 10% of water to obtain a 15.0 mg/ml lipid solution. Luciferase (luc) DNA (manufactured by Nature Technology Corp.) was dissolved in a 10 mM MES buffer solution (pH 5.5) to obtain a 0.3 mg/ml nucleic acid solution. The obtained lipid solution and nucleic acid solution were mixed at a flow rate ratio of 3 ml/min:6 ml/min at room temperature using NanoAssemblr (manufactured by Precision NanoSystems Inc.) to obtain a dispersion containing Luc DNA-encapsulated lipid nanoparticles. The obtained dispersion was dialyzed against water at room temperature for 1 hour and against PBS at 4° C. for 23 hours using Slyde-A-Lyzer (molecular weight cutoff: 20 K, Thermo Fischer Scientific Inc.). Subsequently, the dialysate was filtered through a 0.2 µm syringe filter (Iwaki). A 60% solution of sucrose in PBS was added thereto, and the mixture was preserved as a 20% solution of sucrose in PBS at −80° C. Analysis results of particle size and rate of encapsulation of the Luc DNA-encapsulated lipid nanoparticles are also shown in Table 2.
# ICrl:CD1 (ICR) mice = experiment: Mouse bioluminescence imaging evaluation (Test Example 1); assay type: in vivo; conditions: Luc DNA-encapsulated lipid nanoparticles 10 mL/kg i.v. to ICR mice; IVIS total flux 15 minutes after luciferin i.p.
# Experimental: The Luc DNA-encapsulated lipid nanopatricles obtained in the aforesaid Production Example were intravenously administered to the tails of ICrl:CD1 (ICR) mice (10 mL/kg i.v.). After administration of the lipid particles, luciferin (15 mg/mL) was administered to the mice (10 mL/kg i.p.), which were loaded in an IVIS (in vivo imaging system) apparatus (manufactured by PerkinElmer, Inc.) under isoflurane inhalation anesthesia. Luminescence images of the mice were taken ventrally (in a supine position) 15 minutes after luciferin administration. The luminescence was digitized with the software of IVIS, followed by evaluation using the value of total flux. Higher luminescence means strong expression of the protein encoded by the DNA encapsulate in the lipid particle. In Table 2, higher luminescence is indicated on a scale of A, B and C in order. A represents luminescence of 3.0E+07 or more, B represents luminescence of 1.0E+0.7 or more and less than 3.0E+07, and C represents luminescence of less than 1.0E+07.
# [2] = Rate of encapsulation of Luc DNA in lipid nanoparticles; assay type: physicochemical; parameters: unit: %; conditions: Luc DNA-encapsulated lipid nanoparticles; cationic lipid:DPPC:cholesterol:GM-020=60:10.6:28:1.4 molar ratio
# Description: The concentration and rate of encapsulation of the nucleic acid (e.g., siRNA or mRNA) in the composition of the present invention can be measured by a known approach. For example, the nucleic acid is fluorescently labeled using Quant-iT™ RiboGreen® (Invitrogen Corp.), and the fluorescence intensity can be measured to determine the concentration and the rate of encapsulation. The concentration of the nucleic acid in the composition can be calculated using a calibration curve prepared from aqueous nucleic acid solutions having known concentrations. The rate of encapsulation can be calculated on the basis of the difference in fluorescence intensity between the presence and absence of addition of Triton-X 100 (surfactant for disrupting the lipid particle). The concentration of the nucleic acid in the composition refers to the total concentration of a nucleic acid encapsulated in the lipid particle and an unencapsulated nucleic acid. The rate of encapsulation refers to the ratio of the nucleic acid encapsulated in the lipid particle to all nucleic acids in the composition.
# as §1
Structure (SMILES),Particle size (nm) [1],Luminescence (ICrl:CD1 (ICR) mice),Rate of encapsulation [2]
"CCCCCCCOC(=O)CCCCC(=O)OCC(COC(=O)CCCN(C)C)(COC(=O)CC(CCC)CCCCCCC)COC(=O)CC(CCC)CCCCCCC (stereo not drawn) [Example 31, 2-({[4-(Dimethylamino)butanoyl]oxy}methyl)-3-[(3-propyldecanoyl)oxy]-2-{[(3-propyldecanoyl)oxy]methyl}propyl heptyl hexanedioate]",97.9 nm,A (A represents luminescence of 3.0E+07 or more),97.1
"CCCCCC(CCCCC)CC(=O)OCC(COC(=O)CCCCCCCC(=O)OCCCC)(COC(=O)CCCCCCCC(=O)OCCCC)COC(=O)CCCN(C)C [Example 33, 1,1′-Dibutyl 9,9′-[2-({[4-(dimethylamino)butanoyl]oxy}methyl)-2-{[(3-pentyloctanoyl)oxy]methyl}propane-1,3-diyl] dinonanedioate]",145.7 nm,B (B represents luminescence of 1.0E+0.7 or more and less than 3.0E+07),89.9
"CCCCCC(CCCCC)CC(=O)OCC(COC(=O)CCCCCCCC(=O)OCCCC)(COC(=O)CCCN(C)C)COC(=O)CC(CCCCC)CCCCC [Example 34, Butyl 2-({[4-(dimethylamino)butanoyl]oxy}methyl)-3-[(3-pentyloctanoyl)oxy]-2-{[(3-pentyloctanoyl)oxy]methyl}propyl nonanedioate]",184.3 nm,C (C represents luminescence of less than 1.0E+07),52.7
"CCCCCC(CCCCC)CC(=O)OCC(COC(=O)CCCCCCCC(=O)OC)(COC(=O)CCCCCCCC(=O)OC)COC(=O)CCCN(C)C [Example 35, 1,1′-[2-({[4-(Dimethylamino)butanoyl]oxy}methyl)-2-{[(3-pentyloctanoyl)oxy]methyl}propane-1,3-diyl] 9,9′-dimethyl dinonanedioate]",95.1 nm,B (B represents luminescence of 1.0E+0.7 or more and less than 3.0E+07),96.1
"CCCCCC(CCCCC)CC(=O)OCC(COC(=O)CCCCCCCC(=O)OC)(COC(=O)CCCN(C)C)COC(=O)CC(CCCCC)CCCCC [Example 36, 2-({[4-(Dimethylamino)butanoyl]oxy}methyl)-3-[(3-pentyloctanoyl)oxy]-2-{[(3-pentyloctanoyl)oxy]methyl}propyl methyl nonanedioate]",127.9 nm,B (B represents luminescence of 1.0E+0.7 or more and less than 3.0E+07),95.1
"CCCCCC(CCCCC)COC(=O)CCC(=O)OCC(COC(=O)CCCCN(C)C)(COC(=O)CCC(=O)OCC(CCCCC)CCCCC)COC(=O)CCC(=O)OCC(CCCCC)CCCCC [Example 38, 1,1′ {2-({[5-(Dimethylamino)pentanoyl]oxy}methyl)-2-[({4-oxo-4-[(2-pentylheptyl)oxy]butanoyl}oxy)methyl]propane-1,3-diyl} 4,4′-bis(2-pentylheptyl) dibutanedioate]",131.3 nm,A (A represents luminescence of 3.0E+07 or more),95.2
"CCCCCCCCCCOC(=O)CCCCC(=O)OCC(COC(=O)CCCCC(=O)OCCCCCCCCCC)(COC(=O)CCCCC(=O)OCCCCCCCCCC)COC(=O)CCCN(C)C [Example 42, 1,1′-Didecyl 6,6′-[2-({[6-(dexyloxy)-6-oxohexanoyl]oxy}methyl)-2-({[4-(dimethylamino)butanoyl]oxy}methyl)propane-1,3-diyl] dihexanedioate]",114.5 nm,C (C represents luminescence of less than 1.0E+07),86.2
"CCCCCCCCOC(=O)CCCCC(=O)OCC(COC(=O)CCCCC(=O)OCCCCCCCC)(COC(=O)CCCN(C)C)COC(=O)CC(CCCCC)CCCCC [Example 43, 1,1′-[2-({[4-(Dimethylamino)butanoyl]oxy}methyl)-2-{[(3-pentyloctanoyl)oxy]methyl}propane-1,3-diyl] 6,6′-dioctyl dihexanedioate]",126.7 nm,A (A represents luminescence of 3.0E+07 or more),96.0
"CCCCCCCCCOC(=O)CCCCC(=O)OCC(COC(=O)CCCCC(=O)OCCCCCCCCC)(COC(=O)CCCN(C)C)COC(=O)CC(CCCCC)CCCCC [Example 44, 1,1′-[2-({[4-(Dimethylamino)butanoyl]oxy}methyl)-2-{[(3-pentyloctanoyl)oxy]methyl}propane-1,3-diyl] 6,6′-dinonyl dihexanedioate]",132.3 nm,A (A represents luminescence of 3.0E+07 or more),96.3
"CCCCCCCCOC(=O)CCCCC(=O)OCC(COC(=O)CCCN(C)C)(COC(=O)CC(CCCCC)CCCCC)COC(=O)CC(CCCCC)CCCCC [Example 49, 2-({[4-(Dimethylamino)butanoyl]oxy}methyl)-3-[(3-pentyloctanoyl)oxy]-2-{[(3-pentyloctanoyl)oxy]methyl}propyl octyl hexanedioate]",112.8 nm,B (B represents luminescence of 1.0E+0.7 or more and less than 3.0E+07),96.0
"CCCCCCCCCOC(=O)CCCCC(=O)OCC(COC(=O)CCCN(C)C)(COC(=O)CC(CCCCC)CCCCC)COC(=O)CC(CCCCC)CCCCC [Example 50, 2-({[4-(Dimethylamino)butanoyl]oxy}methyl)-3-[(3-pentyloctanoyl)oxy]-2-{[(3-pentyloctanoyl)oxy]methyl}propyl nonyl hexanedioate]",86.5 nm,B (B represents luminescence of 1.0E+0.7 or more and less than 3.0E+07),98.2
"CCCCCOC(=O)CCCCCCCC(=O)OCC(COC(=O)CCCCCCCC(=O)OCCCCC)(COC(=O)CCCCCCCC(=O)OCCCCC)COC(=O)CCCN(C)C [Example 55, 1,1′-[2-({[4-(Dimethylamino)butanoyl]oxy}methyl)-2-({[9-oxo-9-(pentyloxy)nonanoyl]oxy}methyl)propane-1,3-diyl] 9,9′-dipentyl dinonanedioate]",186.2 nm,C (C represents luminescence of less than 1.0E+07),79.7
"CCCCCCCOC(=O)CCCCCCCC(=O)OCC(COC(=O)CCCCCCCC(=O)OCCCCCCC)(COC(=O)CCCN(C)C)COC(=O)CC(CCCCC)CCCCC [Example 60, 1,1′-[2-({[4-(Dimethylamino)butanoyl]oxy}methyl)-2-{[(3-pentyloctanoyl)oxy]methyl}propane-1,3-diyl] 9,9′-diheptyl dinonanedioate]",143.9 nm,A (A represents luminescence of 3.0E+07 or more),77.6
"CCCCCCOC(=O)CCCCCCCC(=O)OCC(COC(=O)CCCN(C)C)(COC(=O)CC(CCCCC)CCCCC)COC(=O)CC(CCCCC)CCCCC [Example 63, 2-({[4-(Dimethylamino)butanoyl]oxy}methyl)-3-[(3-pentyloctanoyl)oxy]-2-{[(3-pentyloctanoyl)oxy]methyl}propyl hexyl nonanedioate]",90.9 nm,C (C represents luminescence of less than 1.0E+07),98.2
"CCCCCCCCCCOC(=O)CC(=O)OCC(COC(=O)CCCN(C)C)(COC(=O)CC(=O)OCCCCCCCCCC)COC(=O)CC(CCCCC)CCCCC [Example 71, 1,1′-Didecyl 3,3′-[2-({[4-(dimethylamino)butanoyl]oxy}methyl)-2-{[(3-pentyloctanoyl)oxy]methyl}propane-1,3-diyl] dipropanedioate]",97.2 nm,A (A represents luminescence of 3.0E+07 or more),92.6
